Active and inactive are the calls of the source. The rule behind the calls is not given here.
Assays:
L929 = assay: Cytotoxicity against mouse L929 cells; assay type: functional, cell-based
[1] = Inhibition of tobacco hornworm V-ATPase; parameters: species or system Manduca sexta

| SMILES | Activity (L929) | IC50 [1] |
| --- | --- | --- |
| C=CC[C@H]1C[C@H]2C[C@H](O)C[C@H](Cc3cccc(O)c3C(=O)O1)O2 | inactive | – |
| CC/C=C\C=C/C(=O)N/C=C/C[C@H]1C[C@H]2C[C@H](O)C[C@H](Cc3cccc(O)c3C(=O)O1)O2 [APICULAREN A] | – | 20 nM |

From ChEMBL document CHEMBL1141267, “Side-chain truncation of apicularen A by olefin cross-metathesis with ethylene” (J Nat Prod, 2007)
